Experimental data published in patent US20260098037A1, “COMPOUND CONTAINING MULTI-FUSED RING STRUCTURE” (Chia Tai Tianqing Pharmaceutical Group Co., Ltd., priority 2023, published 2026).
Where two headings read alike, the source gives them in different places.

Assays:
GLP1R = GLP1R (Homo sapiens, UniProt P43220); experiment: In vitro cellular cAMP expression activity assay (CRE-luciferase reporter); format: cell-based; settings: HEK293/CRE-Luc/GLP1R cells, 6 h incubation, luciferase luminescence; read-out: HEK293/CRE-Luc/GLP-1R EC50
Chain of GLP1R (P43220 24-463): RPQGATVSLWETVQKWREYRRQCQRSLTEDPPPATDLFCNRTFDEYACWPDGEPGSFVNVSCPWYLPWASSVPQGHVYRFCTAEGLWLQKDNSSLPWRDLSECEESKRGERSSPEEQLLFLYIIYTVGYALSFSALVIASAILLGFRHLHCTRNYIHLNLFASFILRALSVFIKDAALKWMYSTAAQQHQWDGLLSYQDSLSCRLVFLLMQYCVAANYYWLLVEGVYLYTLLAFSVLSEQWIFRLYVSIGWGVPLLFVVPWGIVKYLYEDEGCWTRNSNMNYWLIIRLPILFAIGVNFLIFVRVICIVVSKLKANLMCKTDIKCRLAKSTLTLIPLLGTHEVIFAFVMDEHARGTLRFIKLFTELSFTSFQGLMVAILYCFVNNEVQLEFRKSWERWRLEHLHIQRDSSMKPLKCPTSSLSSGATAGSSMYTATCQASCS
Description: HEK293/CRE-Luc/GLP1R cells (manufacturer: GenScript Biotech Corporation) in a good growth state were taken, washed with PBS, and digested with pancreatin. The digestion was terminated with a complete medium. The cells were collected into a centrifuge tube, adjusted to a cell density of 4×10^5 cells/mL using a DMEM+2% FBS medium, seeded in a 96-well plate (100 μL/well), and incubated at 37° C. for 1 h. After 1 h, the compounds were added using a nanoliter pipettor such that the final concentrations of the compounds were 10 nM-0.0006 nM. The compounds were added in duplicate, and a control was set. After the cells were incubated in a cell incubator for another 6 h, a detection reagent Luciferase (manufacturer: Vazyme Biotech, 50 μL/well) was added. The plate was left to stand at room temperature for 3 min to fully lyse the cells, and the luminescence was detected on a PerkinElmer Envision microplate reader. A dose-response curve was fitted by four-parameter analysis, and the EC50 was calculated.

[1] = In vitro stability assay in liver microsome (HLM); format: in vitro ADME, human; settings: liver microsome 0.5 mg/mL, NADPH+MgCl2, PBS pH 7.4, 1 h
Description: (§1) Liver microsome incubation samples were prepared by mixing a PBS buffer (pH 7.4), a liver microsome solution (0.5 mg/mL), a test compound, and an NADPH+MgCl2 solution, and incubated at […] and 300 rpm for 1 h. Zero-hour samples were prepared by mixing a PBS buffer (pH 7.4), a liver microsome solution (0.5 mg/mL), and a test compound. An acetonitrile solution containing an internal standard was added to the samples, and supernatants were prepared by protein precipitation, diluted, and then assayed by LC/MS/MS.

[2] = In vitro stability assay in liver microsome (MLM); format: in vitro ADME, mouse; settings: liver microsome 0.5 mg/mL, NADPH+MgCl2, PBS pH 7.4, 1 h
Description: as §1

[3] = In vivo pharmacokinetic evaluation in mice; settings: mouse, plasma, ICR mice; for bioavailability: ig 3 mg/kg vs iv 0.5 mg/kg, read-out: Absolute bioavailability F; for MRT last: read-out: MRT(0-24); for half-life: read-out: t½ (converted); for AUC(0-t): read-out: AUC(0-24)
Description: ICR mice of 18-22 g were randomized into 4 groups of 9 mice after 3-5 days of acclimatization. […]
The test animals (ICR mice) were fasted from 12 h pre-dose to 4 h post-dose, and given free access to water throughout the study.
Orbital blood samples of about 0.1 mL were collected at 15 min, 30 min, 1 h, 2 h, 3 h, 4 h, 6 h, 8 h, 10 h, and 24 h post-dose for the intragastric administration, and at 5 min, 10 min, 30 min, 1 h, 2 h, 4 h, 6 h, 8 h, 10 h, and 24 h post-dose for the intravenous administration. The blood sampling was performed at 3-4 time points for each mouse, 3 mice per time point. The collected whole blood was transferred into EDTA-K2-containing centrifuge tubes and stored at 4° C., and, within 1 h, centrifuged at 4° C. at 4000 rpm for 10 min to separate the plasma. All the plasma samples were immediately stored after collection at −20° C. for testing.
30 μL of the plasma sample to be tested and a standard curve sample were pipetted and added with 300 μL of an acetonitrile solution containing an internal standard (20 ng/mL of diazepam). The mixture was shaken to mix well for 5 min, and centrifuged at 13,000 rpm for 10 min. 80 μL of the supernatant was taken and diluted with 80 μL of ultrapure water. After a thorough mixing, 2 μL of the resulting sample was taken for liquid chromatography-mass spectrometry, and the chromatogram was recorded.

[4] = system: GLP-1R humanized C57BL/6J mice; experiment: Evaluation of hypoglycemic effect in mice (intraperitoneal glucose challenge); format: in vivo; settings: intragastric dose 1 mg/kg, glucose 2 g/kg ip 5 h after administration
Excerpt: GLP-1R humanized C57BL/6J mice of 20-22 g were used in this study after 3 days of acclimatization. All the animals were deprived of food but not water until the end of study. Blood samples were collected from the tail tip of the mice.
The test animals were deprived of food but not water overnight before the study. The next day, blood was collected from all the animals for blood glucose testing, and the animals were randomized into a normal control group, a positive control group, and test compound groups by blood glucose and body weight, with 6 animals in each group. The groups were then given intragastric doses, and 5 h after the administration, an intraperitoneal injection of glucose solution (2 g/kg) was given. The blood glucose concentration was measured at 0.25 h, 0.5 h, 1 h, 2 h, and 3 h after the glucose injection. The blood glucose was recorded throughout the study, and the area under the blood glucose-time curve AUC0-180 min Glu was calculated.

EC50 (GLP1R)	HLM Remaining (T = 60 min) [1]	MLM Remaining (T = 60 min) [2]	bioavailability ([3]; po)	MRT last ([3]; po, ig, dose 3 mg/kg)	half-life ([3]; po, ig, dose 3 mg/kg)	MRT last ([3]; iv, dose 0.5 mg/kg)	half-life ([3]; iv, dose 0.5 mg/kg)	AUC(0-inf) ([3]; po, ig, dose 3 mg/kg)	AUC(0-t) ([3]; po, ig, dose 3 mg/kg)	AUC(0-inf) ([3]; iv, dose 0.5 mg/kg)	AUC(0-t) ([3]; iv, dose 0.5 mg/kg)	SMILES	AUC0-180 min Glu reduction (%) [4]
< 0.5 nM	98.60%	94.32%	35.2%	7.8 h	4.27 h	5.16 h	4.6 h	4780 ng·h/mL	4640 ng·h/mL	2260 ng·h/mL	2220 ng·h/mL	Cc1cc(-n2nc3c(c2-n2ccn(-c4ccc5c(c4)N(C)C(=O)C54CC4)c2=O)[C@H](C)N(C(=O)c2cc4cc(C5CCOC(C)(C)C5)ccc4n2[C@@]2(c4noc(=O)[nH]4)C[C@@H]2C)CC3)cc(C)c1F (single isomer, unassigned) [Compound 5]	83%
< 0.5 nM	89.53%	90.40%	37.8%	10.1 h	5.54 h	6.78 h	5.77 h	4910 ng·h/mL	4560 ng·h/mL	2170 ng·h/mL	2060 ng·h/mL	Cc1cc(-n2nc3c(c2-n2ccn(-c4ccc5c(c4F)N(C)C(=O)C54CC4)c2=O)[C@H](C)N(C(=O)c2cc4cc([C@H]5CCOC(C)(C)C5)ccc4n2[C@@]2(c4noc(=O)[nH]4)C[C@@H]2C)CC3)cc(C)c1F [Compound 14]	79%
< 0.5 nM	86.20%	87.54%	–	–	–	–	–	–	–	–	–	Cc1cc(-c2nn3c(c2-n2ccn(-c4ccc5c(c4)N(C)C(=O)C54CC4)c2=O)[C@H](C)N(C(=O)c2cc4cc([C@H]5CCOC(C)(C)C5)ccc4n2[C@@]2(c4noc(=O)[nH]4)C[C@@H]2C)CC3)cc(C)c1F [Compound 27-D]	75%
